Literature values, collected in patent US20090123956A1, “Measurement of the oxidants-antioxidants balance in liquids” (Samsung Electronics Co., Ltd., priority 2006, published 2009).

Settings: change in absorbance at 450 nm (reference 620 or 570 nm) at equivalent molar concentration, uric acid = 1

Structure (SMILES) | relative activity in compare with uric acid
N[C@@H](CCC(=O)N[C@@H](CS)C(=O)NCC(=O)O)C(=O)O [GSH] | about 1
Cc1c(C)c2c(c(C)c1O)CCC(C)(C(=O)O)O2 (stereo not drawn) [Trolox] | about 1
O=C1O[C@H]([C@@H](O)CO)C(O)=C1O [vitamin C] | about 1
